In brackets after ≈: the same amount, converted by molar mass.
How the values were obtained:
Solubility in water = type: physicochemical; details: for fold improved water solubility compared to alkyl substituted inhibitors (4 or 6): versus compounds 4 or 6
[1] = In vitro metabolic stability in human liver microsomes; details: for Stability (% remaining): human liver microsomal protein 0.125 mg, NADPH generating system, 37°C, 60 min, parent by LC-MS/MS, triplicate; for fold improved metabolic stability compared to compound 6: versus compound 6; for fold lower stability compared to compound 13: versus compound 13
Human sEH = target: T1, Human sEH (Homo sapiens, UniProt P34913); assay: Inhibition of human sEH, fluorescent substrate assay; type: biochemical
T1 sequence (P34913 1-555): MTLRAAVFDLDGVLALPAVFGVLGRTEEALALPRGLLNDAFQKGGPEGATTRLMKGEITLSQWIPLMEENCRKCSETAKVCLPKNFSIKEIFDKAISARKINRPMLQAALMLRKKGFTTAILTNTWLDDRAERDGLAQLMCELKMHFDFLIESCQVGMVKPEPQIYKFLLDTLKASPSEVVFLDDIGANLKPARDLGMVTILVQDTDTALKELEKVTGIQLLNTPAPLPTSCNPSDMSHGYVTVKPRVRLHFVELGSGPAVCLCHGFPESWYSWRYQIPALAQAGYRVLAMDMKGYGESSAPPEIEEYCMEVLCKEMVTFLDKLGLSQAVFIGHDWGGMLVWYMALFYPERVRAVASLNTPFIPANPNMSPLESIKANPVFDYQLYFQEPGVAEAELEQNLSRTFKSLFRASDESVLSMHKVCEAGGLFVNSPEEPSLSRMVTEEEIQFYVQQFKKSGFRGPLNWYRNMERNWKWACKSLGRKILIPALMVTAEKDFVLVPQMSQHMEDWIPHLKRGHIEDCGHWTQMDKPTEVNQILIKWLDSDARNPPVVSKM

Compound | Stability (% remaining) [1] [% remaining] | fold improved metabolic stability compared to compound 6 ([1]; human liver microsomes) [fold] | fold lower stability compared to compound 13 ([1]; human liver microsomes) [fold] | other results
O=C(O)CCCNC(=O)NC12CC3CC(CC(C3)C1)C2 [Compound 3, 4-(3-adamantan-1-yl-ureido)-butyric acid] | 97 | – | – | solubility at 24 h (Solubility in water; sodium phosphate buffer, pH 7.4): 7 µg/mL (≈ 25 µM); parent acid determined after microsomal incubation ([1]; human liver microsomes): > 95%
CCCCCOC(=O)CCCNC(=O)NC12CC3CC(CC(C3)C1)C2 [Compound 4] | <1 | – | – | metabolism in human liver microsomal incubation ([1]; human liver microsomes): all metabolized to the corresponding butyric acid
CCCCC(C)OC(=O)CCCNC(=O)NC12CC3CC(CC(C3)C1)C2 (stereo not drawn) [Compound 5] | – | – | – | fold improvement in inhibition potency compared to compound 4 (Human sEH; versus compound 4): 2.5 fold
CCCCC(CC)OC(=O)CCCNC(=O)NC12CC3CC(CC(C3)C1)C2 (stereo not drawn) [Compound 6] | 4 | – | – | –
CCCCC(C#N)OC(=O)CCCNC(=O)NC12CC3CC(CC(C3)C1)C2 (stereo not drawn) [Compound 7] | – | – | – | fold decrease in inhibition potency in comparison with methyl (5) or ethyl (6) (Human sEH; versus compounds 5 or 6): 3 fold
CCOCCOCCOC(=O)CCCNC(=O)NC12CC3CC(CC(C3)C1)C2 [Compound 8] | 10 | > 2.5 | 3 | fold reduction in inhibition compared to compounds 4, 5 and 6 (Human sEH; versus compounds 4, 5 and 6): 7–17 fold
CCOCCOCC(OC(=O)CCCNC(=O)NC12CC3CC(CC(C3)C1)C2)c1ccccc1 (stereo not drawn) [Compound 9] | 14 | > 2.5 | ~2 | fold improved water solubility compared to alkyl substituted inhibitors (4 or 6) (Solubility in water): 20–45 fold
O=C(NC1CCCC(C(=O)O)C1)NC12CC3CC(CC(C3)C1)C2 (stereo not drawn) [Compound 10, 3-(3-adamantan-1-yl-ureido)-cyclohexylcarboxylic acid] | 95 | – | – | parent acid determined after microsomal incubation ([1]; human liver microsomes): > 95%
CCCCC(CC)OC(=O)C1CCCC(NC(=O)NC23CC4CC(CC(C4)C2)C3)C1 (stereo not drawn) [Compound 12] | 10 | 2.5 | 3 | –
CCOCCOCC(OC(=O)C1CCCC(NC(=O)NC23CC4CC(CC(C4)C2)C3)C1)c1ccccc1 (stereo not drawn) [Compound 13] | 32 | – | – | fold improved water solubility compared to alkyl substituted inhibitors (4 or 6) (Solubility in water): 20–45 fold; fold improved stability compared to compound 9 ([1]; human liver microsomes, versus compound 9): ~2 fold
